Test results as given in PubChem BioAssay (NCI).
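Dose response: 5 concentrations. Exposure: 48 h. Format: 96-well plates. Endpoint: linear interpolation; highest concentration if not reached. The concentration for 50% growth inhibition is given as GI50. Definition used: TGI = concentration required for complete inhibition of growth.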

Tests used:
Assay in all cases: NCI tumour cell line growth inhibition, 48 h
786-0 renal = tested on: 786-0 renal
MCF7 breast = tested on: MCF7 breast
LXFL 529 NSCLC = tested on: LXFL 529 NSCLC
RXF-631 renal = tested on: RXF-631 renal
XF 498 CNS = tested on: XF 498 CNS
HOP-18 NSCLC = tested on: HOP-18 NSCLC
SN12K1 renal = tested on: SN12K1 renal
P388 leukemia = tested on: P388 leukemia

Row | Compound | TGI (MCF7 breast) [µM] | TGI (LXFL 529 NSCLC) [µM] | TGI (XF 498 CNS) [µM] | also measured
1 | CN=C(N)/N=C(\N)Nc1cc2ccccc2c2ccccc12 | 26.1 | – | – | TGI (786-0 renal): 25.5 µM
2 | CCCC1=C(C(=O)OCC)C(c2ccccc2OC)C(C#N)=C(N)O1 (stereo not given) | > 100 | – | – | GI50 (MCF7 breast): 28.4 µM
3 | CCOC(=O)C(=O)Nc1c(CC)cccc1C(C)CC (stereo not given) | – | > 100 | > 100 | TGI (RXF-631 renal): > 100 µM; TGI (HOP-18 NSCLC): > 100 µM
4 | N#CCCOCN(CO)c1nc(N(CO)COCCC#N)nc(N(CO)COCCC#N)n1 | – | 42.5 | 31.5 | TGI (HOP-18 NSCLC): 59.6 µM
5 | CC(=O)N1CC(=O)NC1=S | – | > 100 | > 100 | TGI (786-0 renal): > 100 µM
6 | COc1cc2c(cc1OC)C1Cc3cc(OC)c(OC)cc3C(C2)O1 | > 100 | – | – | –
7 | Nc1cccc2c1C1=NNC(=O)CC1C2 (stereo not given) | > 100 | – | > 100 | TGI (SN12K1 renal): > 100 µM; TGI (P388 leukemia): > 100 µM
8 | NC(=O)Nc1ccc(C(=O)NCCCNC(=O)c2ccc(NC(N)=O)cc2)cc1 | > 100 | – | – | –
9 | Cc1c2cc[n+](C)cc2c(C)c2c1[nH]c1ccc(Cl)cc12 | 15.9 | 2.59 | – | TGI (786-0 renal): 5.76 µM; TGI (HOP-18 NSCLC): 22.7 µM
10 | O=C(Nc1cccc([N+](=O)[O-])c1)C(=O)C(C(=O)c1ccccc1F)C1OC(=O)C2C=CC=CC21 (stereo not given) | – | > 100 | > 100 | –
11 | COc1cc(NC(=O)CSc2nc3ccccc3c(=O)n2CCc2ccccc2)cc(OC)c1OC | > 100 | – | – | GI50 (MCF7 breast): 4.44 µM
12 | O=C(NCCNc1nccc(-c2c(-c3cccc(O)c3)nc3sccn23)n1)Nc1cccc(C(F)(F)F)c1 | 16 | – | – | GI50 (MCF7 breast): 3.57 µM
13 | Cc1ccc2ccc3ccc(C)nc3c2n1 | 0.93 | > 100 | – | TGI (786-0 renal): > 100 µM; TGI (HOP-18 NSCLC): > 100 µM
14 | C[C@H](N[C@H]1CCC[C@]1(O)C#Cc1ccc2c(c1)OCO2)c1ccccc1 | > 25 | – | – | –
